{"source": "patent US9144238B2", "about": "“Active compound combinations” (BAYER INTELLECTUAL PROPERTY GMBH, priority 2011, dated 2015)", "key": {"Venturia inaequalis": {"system": "Venturia inaequalis", "test": "Venturia test (apples)/preventive", "format": "in vivo", "conditions": "Venturia inaequalis, 240 h, read-out: Efficacy in % found; for pest or weed control at 25 ppm: Table 10, 25 ppm a.i.; for pest or weed control at 50 ppm: Table 11, 50 ppm a.i.", "protocol": "(§1) To produce a suitable preparation of active compound, 1 part by weight of active compound is mixed with the stated amounts of solvent and emulsifier, and the concentrate is diluted with water to the desired concentration.\nTo test for preventive activity, young plants are sprayed with the preparation of active compound at the stated rate of application. After the spray coating has dried on, the plants are inoculated with an aqueous conidia suspension of the causal agent of apple scab (Venturia inaequalis) and then remain for 1 day in an incubation cabinet at approximately 20° C. and a relative atmospheric humidity of 100%.\nThe plants are then placed in a greenhouse at approximately 21° C. and a relative atmospheric humidity of approximately 90%.\n(§2) The test is evaluated 10 days after the inoculation. 0% means an efficacy which corresponds to that of the untreated control, while an efficacy of 100% means that no disease is observed."}, "Sphaerotheca fuliginea": {"system": "Sphaerotheca fuliginea", "test": "Sphaerotheca test (cucumbers)/preventive", "format": "in vivo", "protocol": "as §1\nTo test for preventive activity, young plants are sprayed with the preparation of active compound at the stated rate of application. After the spray coating has dried on, the plants are inoculated with an aqueous spore suspension of Sphaerotheca fuliginea. The plants are then placed in a greenhouse at approximately 23° C. and a relative atmospheric humidity of approximately 70%.\nThe test is evaluated 7 days after the inoculation. 0% means an efficacy which corresponds to that of the untreated control, while an efficacy of 100% means that no disease is observed.\nas §2"}, "Phytophthora infestans": {"system": "Phytophthora infestans", "test": "whole plant or invertebrate", "format": "in vivo", "conditions": "Phytophthora infestans, 72 h, tomatoes; for pest or weed control at 10 ppm: 10 ppm a.i.; for pest or weed control at 0.01 ppm: 0.01 ppm a.i.; for pest or weed control at 0.0025 ppm: 0.0025 ppm a.i.; for pest or weed control at 0.005 ppm: 0.005 ppm a.i."}, "Alternaria solani": {"system": "Alternaria solani", "test": "whole plant or invertebrate", "format": "in vivo", "conditions": "for Efficacy in % found: in vivo"}, "Botrytis cinerea": {"system": "Botrytis cinerea", "test": "Botrytis test (beans)/preventive", "format": "in vivo", "protocol": "as §1\nTo test for preventive activity, young plants are sprayed with the preparation of active compound. After the spray coating has dried on, 2 small pieces of agar covered with growth of Botrytis cinerea are placed on each leaf. The inoculated plants are placed in a darkened chamber at 20° C. and a relative atmospheric humidity of 100%.\n2 days after the inoculation, the size of the lesions on the leaves is evaluated. 0% means an efficacy which corresponds to that of the untreated control, while an efficacy of 100% means that no disease is observed.\nas §2"}, "[1]": {"conditions": "pH 2.3"}, "[2]": {"conditions": "read-out: Efficacy in % found, Table 2"}, "[3]": {"conditions": "Alternaria solani, 72 h, read-out: Efficacy in % found"}, "[4]": {"conditions": "read-out: Efficacy in % found, Table 3"}, "[5]": {"conditions": "read-out: Efficacy in % found, Table 1"}, "[6]": {"conditions": "read-out: Efficacy in % found, Table 4"}, "[7]": {"conditions": "read-out: Efficacy in % found, Table 5"}}, "note": "Where two headings read alike, the source gives them in different places."}
{"compound": "O=C(Nc1ccccc1-c1ccc(Cl)cc1)c1cccnc1Cl", "note": "[2.2, boscalid]", "values": [{"measurement": "pest or weed control at 12.5 ppm", "setting": "Venturia inaequalis; Table 10, 12.5 ppm a.i.", "value": 66, "unit": "%"}, {"measurement": "Efficacy in % found", "setting": "Sphaerotheca fuliginea; Table 13, 25 ppm a.i.", "value": 67, "unit": "%"}]}
{"compound": "O=C1c2ccccc2C(=O)N1SC(Cl)(Cl)Cl", "note": "[5.16, folpet]", "values": [{"measurement": "pest or weed control at 5 ppm", "setting": "Phytophthora infestans; read-out: Efficacy in % found, Table 2, 5 ppm a.i.", "value": 3, "unit": "%"}, {"measurement": "pest or weed control at 10 ppm", "setting": "Phytophthora infestans; [2]", "value": 3, "unit": "%"}, {"measurement": "pest or weed control at 5 ppm", "setting": "Alternaria solani; [3]", "value": 21, "unit": "%"}, {"measurement": "pest or weed control at 10 ppm", "setting": "Venturia inaequalis; Table 11, 10 ppm a.i.", "value": 43, "unit": "%"}, {"measurement": "Efficacy in % found", "setting": "Botrytis cinerea; Table 12, 10 ppm a.i.", "value": 31, "unit": "%"}]}
{"compound": "Cc1cc(C)nc(Nc2ccccc2)n1", "note": "[7.7, pyrimethanil]", "values": [{"measurement": "pest or weed control at 10 ppm", "setting": "Phytophthora infestans; [4]", "value": 10, "unit": "%"}, {"measurement": "pest or weed control at 20 ppm", "setting": "Alternaria solani; [3]", "value": 4, "unit": "%"}, {"measurement": "Efficacy in % found", "setting": "Botrytis cinerea; Table 12, 10 ppm a.i.", "value": 15, "unit": "%"}]}
{"compound": "C#CCOc1ccccc1C1CC(c2csc(C3CCN(C(=O)Cn4nc(C(F)F)cc4C(F)F)CC3)n2)=NO1", "note": "(stereo not shown) [(I-1), 2-[3,5-bis(difluoromethyl)-1H-pyrazol-1-yl]-1-[4-(4-{5-[2-(prop-2-yn-1-yloxy)phenyl]-4,5-dihydro-1,2-oxazol-3-yl}-1,3-thiazol-2-yl)piperidin-1-yl]ethanone]", "values": [{"measurement": "pest or weed control at 0.01 ppm", "setting": "Phytophthora infestans; [5]", "value": 0, "unit": "%"}, {"measurement": "pest or weed control at 0.0025 ppm", "setting": "Phytophthora infestans; [2]", "value": 52, "unit": "%"}, {"measurement": "pest or weed control at 0.01 ppm", "setting": "Phytophthora infestans; [2]", "value": 42, "unit": "%"}, {"measurement": "pest or weed control at 0.01 ppm", "setting": "Phytophthora infestans; [4]", "value": 29, "unit": "%"}, {"measurement": "pest or weed control at 0.01 ppm", "setting": "Phytophthora infestans; [6]", "value": 15, "unit": "%"}, {"measurement": "pest or weed control at 0.0025 ppm", "setting": "Phytophthora infestans; [7]", "value": 64, "unit": "%"}, {"measurement": "pest or weed control at 50 ppm", "setting": "Alternaria solani; [3]", "value": 21, "unit": "%"}, {"measurement": "pest or weed control at 100 ppm", "setting": "Alternaria solani; [3]", "value": 0, "unit": "%"}, {"measurement": "pest or weed control at 25 ppm", "setting": "Venturia inaequalis", "value": 0, "unit": "%"}, {"measurement": "pest or weed control at 100 ppm", "setting": "Venturia inaequalis; Table 10, 100 ppm a.i.", "value": 8, "unit": "%"}, {"measurement": "pest or weed control at 50 ppm", "setting": "Venturia inaequalis", "value": 0, "unit": "%"}, {"measurement": "pest or weed control at 100 ppm", "setting": "Venturia inaequalis; Table 11, 100 ppm a.i.", "value": 0, "unit": "%"}, {"measurement": "Efficacy in % found", "setting": "Botrytis cinerea; Table 12, 25 ppm a.i.", "value": 15, "unit": "%"}, {"measurement": "Efficacy in % found", "setting": "Botrytis cinerea; Table 12, 50 ppm a.i.", "value": 15, "unit": "%"}, {"measurement": "Efficacy in % found", "setting": "Sphaerotheca fuliginea; Table 13, 50 ppm a.i.", "value": 0, "unit": "%"}, {"measurement": "chromatographic logP", "setting": "physchem; pH 2.7", "value": 3.24}, {"measurement": "chromatographic logP", "setting": "physchem; pH 7.8", "value": 3.34}]}
{"compound": "C#CCOc1cccc(F)c1C1CC(c2csc(C3CCN(C(=O)Cn4nc(C(F)F)cc4C(F)F)CC3)n2)=NO1", "note": "(stereo not shown) [(I-5), 2-[3,5-bis(difluoromethyl)-1H-pyrazol-1-yl]-1-[4-(4-{5-[2-fluoro-6-(prop-2-yn-1-yloxy)phenyl]-4,5-dihydro-1,2-oxazol-3-yl}-1,3-thiazol-2-yl)piperidin-1-yl]ethanone]", "values": [{"measurement": "pest or weed control at 0.01 ppm", "setting": "Phytophthora infestans; [5]", "value": 62, "unit": "%"}, {"measurement": "pest or weed control at 0.005 ppm", "setting": "Phytophthora infestans; [2]", "value": 43, "unit": "%"}, {"measurement": "pest or weed control at 50 ppm", "setting": "Alternaria solani; [3]", "value": 15, "unit": "%"}, {"measurement": "Efficacy in % found", "setting": "Alternaria solani", "value": 29, "unit": "%"}, {"measurement": "pest or weed control at 50 ppm", "setting": "Venturia inaequalis", "value": 0, "unit": "%"}, {"measurement": "pest or weed control at 100 ppm", "setting": "Venturia inaequalis; Table 11, 100 ppm a.i.", "value": 0, "unit": "%"}, {"measurement": "Efficacy in % found", "setting": "Botrytis cinerea; Table 12, 25 ppm a.i.", "value": 10, "unit": "%"}, {"measurement": "Efficacy in % found", "setting": "Botrytis cinerea; Table 12, 100 ppm a.i.", "value": 38, "unit": "%"}, {"measurement": "chromatographic logP", "setting": "physchem; pH 2.7", "value": 3.15}, {"measurement": "chromatographic logP", "setting": "physchem; pH 7.8", "value": 3.18}]}
{"compound": "C#CCOc1cccc(Cl)c1C1CC(c2csc(C3CCN(C(=O)Cn4nc(C(F)F)cc4C(F)F)CC3)n2)=NO1", "note": "(stereo not shown) [(I-6), 2-[3,5-bis(difluoromethyl)-1H-pyrazol-1-yl]-1-[4-(4-{5-[2-chloro-6-(prop-2-yn-1-yloxy)phenyl]-4,5-dihydro-1,2-oxazol-3-yl}-1,3-thiazol-2-yl)piperidin-1-yl]ethanone]", "values": [{"measurement": "pest or weed control at 0.005 ppm", "setting": "Phytophthora infestans; [6]", "value": 35, "unit": "%"}, {"measurement": "pest or weed control at 0.0025 ppm", "setting": "Phytophthora infestans; [7]", "value": 73, "unit": "%"}, {"measurement": "pest or weed control at 25 ppm", "setting": "Alternaria solani; [3]", "value": 30, "unit": "%"}, {"measurement": "pest or weed control at 50 ppm", "setting": "Alternaria solani; [3]", "value": 35, "unit": "%"}, {"measurement": "pest or weed control at 100 ppm", "setting": "Alternaria solani; [3]", "value": 41, "unit": "%"}, {"measurement": "Efficacy in % found", "setting": "Alternaria solani", "value": 29, "unit": "%"}, {"measurement": "pest or weed control at 25 ppm", "setting": "Venturia inaequalis", "value": 0, "unit": "%"}, {"measurement": "pest or weed control at 100 ppm", "setting": "Venturia inaequalis; Table 10, 100 ppm a.i.", "value": 4, "unit": "%"}, {"measurement": "pest or weed control at 50 ppm", "setting": "Venturia inaequalis", "value": 13, "unit": "%"}, {"measurement": "pest or weed control at 100 ppm", "setting": "Venturia inaequalis; Table 11, 100 ppm a.i.", "value": 38, "unit": "%"}, {"measurement": "Efficacy in % found", "setting": "Sphaerotheca fuliginea; Table 13, 50 ppm a.i.", "value": 0, "unit": "%"}, {"measurement": "chromatographic logP", "setting": "physchem; pH 2.7", "value": 3.4}, {"measurement": "chromatographic logP", "setting": "[1]", "value": 3.51}]}
{"compound": "mancozeb [5.23]", "values": [{"measurement": "Efficacy in % found", "setting": "Alternaria solani", "value": 0, "unit": "%"}, {"measurement": "Efficacy in % found", "setting": "Botrytis cinerea; Table 12, 5 ppm a.i.", "value": 0, "unit": "%"}]}
